Results from patent US8216802B2, “Detection medium for gram negative bacteria” (Biomerieux, priority 2007, dated 2012).

Key:
Type in all cases: cell-based
Citrobacter strains [1] = test: Colony coloration on supplemented Trypticase Soy medium with cellobiose (text summary)
Procedure: (§1) Various concentrations of cellobiose (0-0.1-1-5-10 g/l) are added to Trypticase Soy medium (bioMérieux) supplemented with 5-bromo-6-chloro-3-indolyl-beta-galactoside at 50 mg/l and with 5-bromo-4-chloro-3-indolyl-beta-glucoside at 50 mg/l. These media are distributed in a proportion of 20 ml per Petri dish. Microorganisms derived from the applicant's collection were inoculated on these media by semi-quantitative isolation of 10 μl of a suspension at 0.5 McFarland, diluted to 1/20. The dishes were incubated at 37° C. for 48 hours. The colonies formed were examined visually after 24 and 48 hours of incubation. The coloration of these colonies was noted.

Citrobacter strains [2] = test: Colony coloration on CPS ID 3 medium with cellobiose (text summary); conditions: in the presence of cellobiose
Procedure: (§2) Various concentrations of cellobiose (0-100-350-1000 mg/l) are added to the CPS ID 3 medium (bioMérieux). These media contain 6-chloro-3-indolyl-beta-glucuronide at 250 mg/l and 5-bromo-4-chloro-3-indolyl-beta-glucoside at 50 mg/l. These media are distributed in a proportion of 20 ml per Petri dish. Microorganisms derived from the applicant's collection were inoculated on these media by semi-quantitative isolation of 10 μl of a suspension at 0.5 McFarland, diluted to 1/20. The dishes were incubated at 37° C. for 48 hours. The colonies formed were examined visually after 24 and 48 hours of incubation. The coloration of these colonies was noted.

Citrobacter freundii 104 [3] = test: Colony coloration on supplemented Trypticase Soy medium with cellobiose; conditions: 37° C.
Procedure: as §1

[4] = test system: Klebsiella pneumoniae 111; test: as above; conditions: 37° C.
Procedure: as §1

Citrobacter freundii 031 [5] = test: as above; conditions: 37° C.
Procedure: as §1

Escherichia coli 003 [6] = test: as above; conditions: 37° C.
Procedure: as §1

Citrobacter freundii 022 [7] = test: as above; conditions: 37° C.
Procedure: as §1

[8] = test system: Enterococcus faecalis 117; test: as above; conditions: 37° C.
Procedure: as §1

Escherichia coli 018 = test: as above; conditions: 37° C.
Procedure: as §1

Serratia marcescens 112 [9] = test: as above; conditions: 37° C.
Procedure: as §1

Citrobacter freundii 104 [10] = test: Colony coloration on CPS ID 3 medium with cellobiose; conditions: 37° C.
Procedure: as §2

[11] = test system: Klebsiella pneumoniae 111; test: as above; conditions: 37° C.
Procedure: as §2

Citrobacter freundii 031 [12] = test: as above; conditions: 37° C.
Procedure: as §2

Escherichia coli 407 = test: as above; conditions: 37° C.
Procedure: as §2

Escherichia coli 003 [13] = test: as above; conditions: 37° C.
Procedure: as §2

Citrobacter freundii 022 [14] = test: as above; conditions: 37° C.
Procedure: as §2

[15] = test system: Enterococcus faecalis 117; test: as above; conditions: 37° C.
Procedure: as §2

Serratia marcescens 112 [16] = test: as above; conditions: 37° C.
Procedure: as §2

O=C[C@H](O)[C@@H](O)[C@H](O[C@@H]1O[C@H](CO)[C@@H](O)[C@H](O)[C@H]1O)[C@H](O)CO [Cellobiose, cellobiose]
differentiation of C. freundii from E. coli (Citrobacter strains [1]; cellobiose concentrations above 5 g/l): less marked
coloration of the colonies (beta-glucosidase activity expressed) (Citrobacter strains [1]; in the presence of cellobiose, supplemented Trypticase Soy medium): green to violet coloration
coloration of the colonies (beta-glucosidase activity expressed) (Citrobacter strains [2]): green to violet coloration
colony coloration (Citrobacter freundii 104 [3]; cellobiose 0.1 g/l, 24 h): Violet
colony coloration (Citrobacter freundii 104 [3]; cellobiose 0.1 g/l, 48 h): Green
colony coloration (Citrobacter freundii 104 [3]; cellobiose 1 g/l, 24 h): Violet
colony coloration (Citrobacter freundii 104 [3]; cellobiose 1 g/l, 48 h): Green
colony coloration (Citrobacter freundii 104 [3]; cellobiose 5 g/l, 24 h): Mauve
colony coloration (Citrobacter freundii 104 [3]; cellobiose 5 g/l, 48 h): Green
colony coloration (Citrobacter freundii 104 [3]; cellobiose 10 g/l, 24 h): Mauve
colony coloration (Citrobacter freundii 104 [3]; cellobiose 10 g/l, 48 h): Mauve
colony coloration ([4]; cellobiose 0.1 g/l, 24 h): Green
colony coloration ([4]; cellobiose 0.1 g/l, 48 h): Blue
colony coloration ([4]; cellobiose 1 g/l, 24 h): Green
colony coloration ([4]; cellobiose 1 g/l, 48 h): Blue
colony coloration ([4]; cellobiose 5 g/l, 24 h): Turquoise
colony coloration ([4]; cellobiose 5 g/l, 48 h): Blue
colony coloration ([4]; cellobiose 10 g/l, 24 h): Turquoise
colony coloration ([4]; cellobiose 10 g/l, 48 h): Blue
colony coloration (Citrobacter freundii 031 [5]; cellobiose 0.1 g/l, 24 h): Violet
colony coloration (Citrobacter freundii 031 [5]; cellobiose 0.1 g/l, 48 h): Green
colony coloration (Citrobacter freundii 031 [5]; cellobiose 1 g/l, 24 h): Mauve
colony coloration (Citrobacter freundii 031 [5]; cellobiose 1 g/l, 48 h): Green
colony coloration (Citrobacter freundii 031 [5]; cellobiose 5 g/l, 24 h): Mauve
colony coloration (Citrobacter freundii 031 [5]; cellobiose 5 g/l, 48 h): Green
colony coloration (Citrobacter freundii 031 [5]; cellobiose 10 g/l, 24 h): Mauve
colony coloration (Citrobacter freundii 031 [5]; cellobiose 10 g/l, 48 h): Mauve
colony coloration (Escherichia coli 003 [6]; cellobiose 0.1 g/l, 24 h): Mauve
colony coloration (Escherichia coli 003 [6]; cellobiose 0.1 g/l, 48 h): Mauve
colony coloration (Escherichia coli 003 [6]; cellobiose 1 g/l, 24 h): Mauve
colony coloration (Escherichia coli 003 [6]; cellobiose 1 g/l, 48 h): Mauve
colony coloration (Escherichia coli 003 [6]; cellobiose 5 g/l, 24 h): Mauve
colony coloration (Escherichia coli 003 [6]; cellobiose 5 g/l, 48 h): Mauve
colony coloration (Escherichia coli 003 [6]; cellobiose 10 g/l, 24 h): Mauve
colony coloration (Escherichia coli 003 [6]; cellobiose 10 g/l, 48 h): Mauve
colony coloration (Citrobacter freundii 022 [7]; cellobiose 0.1 g/l, 24 h): Violet
colony coloration (Citrobacter freundii 022 [7]; cellobiose 0.1 g/l, 48 h): Blue
colony coloration (Citrobacter freundii 022 [7]; cellobiose 1 g/l, 24 h): Violet
colony coloration (Citrobacter freundii 022 [7]; cellobiose 1 g/l, 48 h): Blue
colony coloration (Citrobacter freundii 022 [7]; cellobiose 5 g/l, 24 h): Pink
colony coloration (Citrobacter freundii 022 [7]; cellobiose 5 g/l, 48 h): Blue
colony coloration (Citrobacter freundii 022 [7]; cellobiose 10 g/l, 24 h): Mauve
colony coloration (Citrobacter freundii 022 [7]; cellobiose 10 g/l, 48 h): Mauve
colony coloration ([8]; cellobiose 0.1 g/l, 24 h): Turquoise
colony coloration ([8]; cellobiose 0.1 g/l, 48 h): Turquoise
colony coloration ([8]; cellobiose 1 g/l, 24 h): Turquoise
colony coloration ([8]; cellobiose 1 g/l, 48 h): Turquoise
colony coloration ([8]; cellobiose 5 g/l, 24 h): Turquoise
colony coloration ([8]; cellobiose 5 g/l, 48 h): Turquoise
colony coloration ([8]; cellobiose 10 g/l, 24 h): Turquoise
colony coloration ([8]; cellobiose 10 g/l, 48 h): Turquoise
colony coloration (Escherichia coli 018; cellobiose 0.1 g/l, 24 h): Mauve
colony coloration (Escherichia coli 018; cellobiose 0.1 g/l, 48 h): Mauve
colony coloration (Escherichia coli 018; cellobiose 1 g/l, 24 h): Mauve
colony coloration (Escherichia coli 018; cellobiose 1 g/l, 48 h): Mauve
colony coloration (Escherichia coli 018; cellobiose 5 g/l, 24 h): Mauve
colony coloration (Escherichia coli 018; cellobiose 5 g/l, 48 h): Mauve
colony coloration (Escherichia coli 018; cellobiose 10 g/l, 24 h): Mauve
colony coloration (Escherichia coli 018; cellobiose 10 g/l, 48 h): Mauve
colony coloration (Serratia marcescens 112 [9]; cellobiose 0.1 g/l, 24 h): Green
colony coloration (Serratia marcescens 112 [9]; cellobiose 0.1 g/l, 48 h): Blue
colony coloration (Serratia marcescens 112 [9]; cellobiose 1 g/l, 24 h): Green
colony coloration (Serratia marcescens 112 [9]; cellobiose 1 g/l, 48 h): Blue
colony coloration (Serratia marcescens 112 [9]; cellobiose 5 g/l, 24 h): Green
colony coloration (Serratia marcescens 112 [9]; cellobiose 5 g/l, 48 h): Blue
colony coloration (Serratia marcescens 112 [9]; cellobiose 10 g/l, 24 h): Turquoise
colony coloration (Serratia marcescens 112 [9]; cellobiose 10 g/l, 48 h): Blue
colony coloration (Citrobacter freundii 104 [10]; cellobiose 100 mg/l, 24 h): Green
colony coloration (Citrobacter freundii 104 [10]; cellobiose 100 mg/l, 48 h): Green
colony coloration (Citrobacter freundii 104 [10]; cellobiose 350 mg/l, 24 h): Green
colony coloration (Citrobacter freundii 104 [10]; cellobiose 350 mg/l, 48 h): Green
colony coloration (Citrobacter freundii 104 [10]; cellobiose 1000 mg/l, 24 h): Green
colony coloration (Citrobacter freundii 104 [10]; cellobiose 1000 mg/l, 48 h): Green
colony coloration ([11]; cellobiose 100 mg/l, 24 h): Turquoise
colony coloration ([11]; cellobiose 100 mg/l, 48 h): Turquoise
colony coloration ([11]; cellobiose 350 mg/l, 24 h): Turquoise
colony coloration ([11]; cellobiose 350 mg/l, 48 h): Turquoise
colony coloration ([11]; cellobiose 1000 mg/l, 24 h): Turquoise
colony coloration ([11]; cellobiose 1000 mg/l, 48 h): Turquoise
colony coloration (Citrobacter freundii 031 [12]; cellobiose 100 mg/l, 24 h): Green
colony coloration (Citrobacter freundii 031 [12]; cellobiose 100 mg/l, 48 h): Green
colony coloration (Citrobacter freundii 031 [12]; cellobiose 350 mg/l, 24 h): Green
colony coloration (Citrobacter freundii 031 [12]; cellobiose 350 mg/l, 48 h): Green
colony coloration (Citrobacter freundii 031 [12]; cellobiose 1000 mg/l, 24 h): Colorless
colony coloration (Citrobacter freundii 031 [12]; cellobiose 1000 mg/l, 48 h): Green
colony coloration (Escherichia coli 407; cellobiose 100 mg/l, 24 h): Pink
colony coloration (Escherichia coli 407; cellobiose 100 mg/l, 48 h): Red
colony coloration (Escherichia coli 407; cellobiose 350 mg/l, 24 h): Pink
colony coloration (Escherichia coli 407; cellobiose 350 mg/l, 48 h): Red
colony coloration (Escherichia coli 407; cellobiose 1000 mg/l, 24 h): Pink
colony coloration (Escherichia coli 407; cellobiose 1000 mg/l, 48 h): Red
colony coloration (Escherichia coli 003 [13]; cellobiose 100 mg/l, 24 h): Pink
colony coloration (Escherichia coli 003 [13]; cellobiose 100 mg/l, 48 h): Red
colony coloration (Escherichia coli 003 [13]; cellobiose 350 mg/l, 24 h): Pink
colony coloration (Escherichia coli 003 [13]; cellobiose 350 mg/l, 48 h): Red
colony coloration (Escherichia coli 003 [13]; cellobiose 1000 mg/l, 24 h): Pink
colony coloration (Escherichia coli 003 [13]; cellobiose 1000 mg/l, 48 h): Red
colony coloration (Citrobacter freundii 022 [14]; cellobiose 100 mg/l, 24 h): Violet
colony coloration (Citrobacter freundii 022 [14]; cellobiose 100 mg/l, 48 h): Violet
colony coloration (Citrobacter freundii 022 [14]; cellobiose 350 mg/l, 24 h): Violet
colony coloration (Citrobacter freundii 022 [14]; cellobiose 350 mg/l, 48 h): Violet
colony coloration (Citrobacter freundii 022 [14]; cellobiose 1000 mg/l, 24 h): Violet
colony coloration (Citrobacter freundii 022 [14]; cellobiose 1000 mg/l, 48 h): Violet
colony coloration ([15]; cellobiose 100 mg/l, 24 h): Turquoise
colony coloration ([15]; cellobiose 100 mg/l, 48 h): Turquoise
colony coloration ([15]; cellobiose 350 mg/l, 24 h): Turquoise
colony coloration ([15]; cellobiose 350 mg/l, 48 h): Turquoise
colony coloration ([15]; cellobiose 1000 mg/l, 24 h): Turquoise
colony coloration ([15]; cellobiose 1000 mg/l, 48 h): Turquoise
colony coloration (Serratia marcescens 112 [16]; cellobiose 100 mg/l, 24 h): Turquoise
colony coloration (Serratia marcescens 112 [16]; cellobiose 100 mg/l, 48 h): Turquoise
colony coloration (Serratia marcescens 112 [16]; cellobiose 350 mg/l, 24 h): Turquoise
colony coloration (Serratia marcescens 112 [16]; cellobiose 350 mg/l, 48 h): Turquoise
colony coloration (Serratia marcescens 112 [16]; cellobiose 1000 mg/l, 24 h): Turquoise
colony coloration (Serratia marcescens 112 [16]; cellobiose 1000 mg/l, 48 h): Turquoise
